From patent US8729074B2, “Inhibitors of PI3 kinase” (Amgen Inc., priority 2009, dated 2014)

Each compound was assayed on phosphorylation of Serine 473 in Akt in HCT 116 cells (assay: Cell-based phospho-Akt Ser473 assay (HCT 116 cell)). Settings: Homo sapiens; pAkt Ser473, HCT 116 cells, compound 2 hours, IGF-1 stimulation; average if run more than once; read-out: HCT116 Cell IC50.
Text: Cell-Based Phospho-Akt Ser473Assay (HCT 116 Cell)
This assay determines the ability of a compound to inhibit the phosphorylation of Serine 473 in Akt using a MSD based sandwich immunoassay (Meso Scale Detection, Meso Scale Discovery (MSD), Gaithersburg, Md.). HCT 116 human colon carcinoma cell lines can be grown in McCoy's 5A growth medium (GIBCO, Carlsbad, Calif.) containing 10% FBS (GIBCO, Carlsbad, Calif.) and X1 Penicillin-streptomycin-glutamine (GIBCO, Carlsbad, Calif.). Prior to the assay, cells can be detached from the culture flask with trypsin, and re-suspended in complete media to give a final concentration of 1.6×10^5 cells per mL. Aliquots (100 μl) of the HCT116 cell suspension can be seeded into each well of a 96 well tissue culture plate to give a final density of 16,000 cells per well. Cells can then be incubated overnight at 37° C.
The following day the cells can be treated with serially diluted test compounds and incubated for 2 hours at 37° C. The culture media on the HCT 116 cells can be replaced with 189 μL McCoys media, supplemented with 0.1% BSA (ICN Biomedicals, Inc., Costa Mesa, Calif.). Compounds can be prepared as either 10 mM or 0.5 mM stock solutions in DMSO, and serially diluted 3 fold in a 10-point dose-response curve to give final concentrations that are 200-fold greater than the desired final test concentration. […]
25 μL Cell lysate can then be transferred to pre-blocked MSD assay plates pre-coated with a capture antibody specific for Akt, and the plates can be incubated for 2 hours at room temperature. […] An aliquot of 150 μL of diluted MSD read buffer can then be applied to each well, and the electrochemiluminescent signal can be measured using a MSD SECTOR™ plate reader (Meso Scale Discovery, Gaithersburg, Md.). This instrument measures the intensity of emitted light to determine a quantitative measure of phosphorylated Akt in each well. The dose-response data obtained with each compound can be analyzed and the IC50 inhibition of Akt phosphorylation at Ser473 can be calculated. […]

Row | Structure (SMILES) | IC50
1 | O=S(=O)(Nc1cc(-c2cnc3ccccn23)cnc1Cl)c1ccc(F)cc1 [Example 3, N-(2-Chloro-5-imidazo[1,2-a]pyridin-3-yl-3-pyridinyl)-4-fluorobenzenesulfonamide] | 352 nM
2 | Cc1ccn2c(-c3cnc(Cl)c(NS(=O)(=O)c4ccc(F)cc4)c3)cnc2c1 [Example 4, N-(2-Chloro-5-(7-methylimidazo[1,2-a]pyridin-3-yl)-3-pyridinyl)-4-fluorobenzenesulfonamide] | 180 nM
3 | O=S(=O)(Nc1cc(-c2cnc3ccc(Cl)nn23)cnc1Cl)c1ccc(F)cc1 [Example 25, N-(2-Chloro-5-(6-chloroimidazo[1,2-b]pyridazin-3-yl)pyridin-3-yl)-4-fluorobenzenesulfonamide] | 564 nM
